Reference: PMC8540349, “GOBP1 from the Variegated Cutworm Peridroma saucia (Hübner) (Lepidoptera: Noctuidae) Displays High Binding Affinities to the Behavioral Attractant (Z)-3-Hexenyl acetate” (Insects, 2021)
“Also recorded” adds a separate entry of the source.

Columns and labels:
[1] = target: recombinant PsauGOBP1; test: Fluorescence competitive-binding assay with 1-NPN as probe; parameters: species or system Peridroma saucia; conditions: mean ± SE; for IC50: 1-NPN displacement, Tris-HCl pH 7.4, 25 °C, read-out: IC50 (concentration of ligand halving the initial fluorescence value); for IC50 / Fluorescence (%) at Maximum Concentration: three experiments; for Kd: calculated from IC50 with KD = [IC50]/1 + [1-NPN]/K1-NPN, read-out: KD (calculated dissociation constant); for Fluorescence (%) at Maximum Concentration: remaining 1-NPN fluorescence
Description: (§1) Emission fluorescence spectra were recorded on a Hitachi F-4500 at 25 °C, with a 1 cm light path quartz cuvette and 5 nm slits for both excitation and emission. The protein was dissolved in 50 mM Tris-HCl buffer, pH 7.4, and ligands were added as 1 mM methanol solutions. To measure the affinity of the fluorescent ligand N-phenyl-1-naphthylamine (1-NPN) to PsauGOBP1, a […] solution of the protein in 50 mM Tris-HCl, pH 7.4, was titrated with aliquots of 1 mM ligand in methanol to a final concentration of 16 µM. The probe was excited at 337 nm, and emission spectra were recorded between 380 and 450 nm. To analyze the binding affinity of other ligands to PsauGOBP1, a panel of 34 compounds including moth sex pheromones and host plant volatiles were used in the competitive-binding assay. A solution of the protein and 1-NPN, both at the concentration of […], was titrated with 1 mM methanol solutions of each competitor at a concentration of 12 (sex pheromones) or 16 µM (host plant volatiles).
The dissociation constant for 1-NPN and the stoichiometry of binding were obtained by processing the data with GraphPad Prism 6. Dissociation constants of the competitors were calculated from the corresponding IC50 values (concentrations of ligands that reduced the initial fluorescence value of 1-NPN by 50%), using the following equation: KD = [IC50]/1 + [1-NPN]/K1-NPN, where [1-NPN] is the free concentration of 1-NPN, and K1-NPN is the dissociation constant of the protein/1-NPN complex.

[2] = test system: P. saucia antennae; test: Electroantennogram (EAG) recording; parameters: species or system Peridroma saucia; conditions: dose 100 µg, two- to three-day-old males and females, versus paraffin oil control, n = 20
Description: Individual synthetic nonanal, citral, farnesol, benzaldehyde, (Z)-3-hexenyl acetate, and (Z)-3-hexen-1-ol was diluted with paraffin oil to make each solution of 10 μg/μL. Each solution was added onto a filter paper (0.2 × 1 cm), and the final loading capacity doses of each solution were 100 μg. A 10 μL volume of paraffin oil was used as the control. Two- to three-day-old male and female P. saucia were used to obtain EAG recordings for the six volatiles. As described by Sun et al. with modification, the antennae were cut from the head and used for electro-signal recordings. After a few segments of the tip were cut off, the antenna was glued to the antenna holder (using conductive gel, Spectra 360, Parker Lab, NJ, USA), and the antenna holder was inserted into the EAG probe. The EAG signal was first amplified with a DC/AC preamplifier (Syntech UN-06), and was further processed with Autospike software (Syntech, Hilversum, the Netherlands).
The EAG data were analyzed using GraphPad Prism 6. The level of significance was set at p < 0.05. Unpaired Student’s t-tests were used to compare the EAG responses of male vs. female P. saucia. For comparison of responses to the six volatiles, the EAG data were first subjected to a one-way ANOVA; this was done separately for males and females. If the ANOVA was significant, means were compared with Tukey’s multiple comparison test.

[3] = target: recombinant PsauGOBP1; test: Affinity of fluorescent probe 1-NPN to PsauGOBP1 (direct titration); parameters: species or system Peridroma saucia; conditions: direct titration 2–16 µM 1-NPN, excitation 337 nm; single binding site; means of three replicates; read-out: dissociation constant of 1-NPN
Description: as §1
The dissociation constant for 1-NPN and the stoichiometry of binding were obtained by processing the data with GraphPad Prism 6. […]

[4] = test system: adult P. saucia; test: Y-tube olfactometer behavioral bioassay; assay type: in vivo, Peridroma saucia
Description: A Y-tube olfactometer was used to assess the behavioral responses of male and female P. saucia to (Z)-3-hexenyl acetate as described by Yan and Wang with modifications. In brief, the system consisted of a central tube (20 cm long, 6 cm diameter) and two lateral arms (35 cm long, 6 cm diameter). (Z)-3-hexenyl acetate was dissolved in paraffin oil to obtain 10 µg/µL solutions. Filter paper (1 × 2 cm) with 10 µL of sample or 10 µL of paraffin oil was placed in a 250 mL flask. During the test, the room temperature was kept at 24 ± 2 °C with 70% ± 5% humidity and 0.6 lux of red light. […] Moths that moved more than half way along one of the lateral arms and remained for at least 5 s were recorded as having made a choice for the odor offered through that arm. After five individuals were tested, the olfactometer was turned and the flasks were switched in order to avoid positional effects. Tested compounds and paraffin oil were renewed every 5–10 min. The olfactometer and the flask were cleaned with water, ethanol, and acetone at the end of each day.
Chi-squared analyses were performed to determine whether the numbers of P. saucia that made a choice differed between the two odor sources (a 50:50 probability was set for the percentage of moths selecting the control and the test sides. The moths that made no choice were not included in the statistical analysis).

[5] = host plant volatiles, maximum concentration 16 (µM)
[6] = sex pheromones, maximum concentration 12 (µM)

SMILES	IC50 [1]	Fluorescence (%) at Maximum Concentration [1, 5]	other results
CC(C)=CCCC(C)=CC=O (mixture of isomers) [Citral]	11.5 ± 1 µM	40 ± 3%	Kd [1]: 5.6 ± 0.4 µM; EAG response of male and female antennae [2]: weak EAG responses and weak
c1ccc(Nc2cccc3ccccc23)cc1 [1-NPN, N-phenyl-1-naphthylamine]			Kd [3]: 1.9 µM
CCC/C=C/CO [(E)-2-hexen-1-ol]	> 20 µM	67 ± 2%	
CCC/C=C/C=O [(E)-2-hexenal]	> 20 µM	64 ± 4%	
CCC/C=C/COC(C)=O [(E)-2-hexenyl acetate]	> 20 µM	77 ± 7%	
C=C1CC/C=C(\C)CC[C@@H]2[C@@H]1CC2(C)C [(E)-caryophyllene]	> 20 µM	75 ± 1%	
C=CC(=C)CC/C=C(\C)CCC=C(C)C [(E)-β-farnesene]	> 20 µM	87 ± 4%	
CC/C=C\CCO [(Z)-3-hexen-1-ol]	17.4 ± 1.5 µM	58 ± 3%	Kd [1]: 8.5 ± 0.6 µM; EAG response of male and female antennae [2]: strong responses; also recorded: relatively strong
CC/C=C\CCOC(C)=O [(Z)-3-hexenyl acetate]	8.2 ± 0.2 µM	19 ± 2%	Kd [1]: 4 ± 0.1 µM; EAG response of male and female antennae [2]: strongest responses; also recorded: strongest EAG response; also recorded: strong responses; percentage of females showing chemotaxis to the compound ([4]; females, 10 µL of 10 µg/µL in paraffin oil versus paraffin oil, Y-tube): 68%; behavioral response (attraction) of both sexes ([4]; males and females, choice versus paraffin oil, chi-squared test): attractive; also recorded: attracted; also recorded: significant attraction; percentage of males showing chemotaxis to the compound ([4]; males, 10 µL of 10 µg/µL in paraffin oil versus paraffin oil, Y-tube): 64%
CC/C=C\CC1=C(C)CCC1=O [(Z)-jasmone]	> 20 µM	83 ± 5%	
O=Cc1ccccc1 [Benzaldehyde]	19.3 ± 1.1 µM	62 ± 2%	Kd [1]: 9.4 ± 0.5 µM; EAG response of male and female antennae [2]: strong responses; also recorded: relatively strong
C=C(C)[C@H]1CC=C(C)CC1 [D-limonene]	> 20 µM	100 ± 5%	
CCCCCCCCCC=O [Decanal]	> 20 µM	85 ± 2%	
CCCCCCCCCCCCO [Dodecanol]	> 20 µM	75 ± 8%	
CC(C)=CCC/C(C)=C/CC/C(C)=C/CO [Farnesol]	13.1 ± 1.2 µM	47 ± 4%	Kd [1]: 6.4 ± 0.6 µM; EAG response of male and female antennae [2]: weak EAG responses and weak
CCCCCCCO [Heptanol]	> 20 µM	65 ± 4%	
c1ccc2[nH]ccc2c1 [Indole]	> 20 µM	70 ± 9%	
CC/C=C\C[C@H]1C(=O)CC[C@@H]1CC(=O)O [Jasmonic acid]	> 20 µM	68 ± 3%	

SMILES	IC50 [1]	Fluorescence (%) at Maximum Concentration [1, 5]	other results
C=CC(C)(O)CCC=C(C)C (stereo not drawn) [Linalool]	> 20 µM	79 ± 2%	
CC/C=C\CC1C(=O)CCC1CC(=O)OC (stereo not drawn) [Methyl jasmonate]	> 20 µM	80 ± 5%	
COC(=O)c1ccccc1O [Methyl salicylate]	> 20 µM	73 ± 3%	
CCCCCCCCC=O [Nonanal]	13.9 ± 0.6 µM	50 ± 2%	Kd [1]: 6.8 ± 0.3 µM; EAG response of male and female antennae [2]: weak EAG responses and weak
C=CC(C)=CCC=C(C)C [Ocimene]	> 20 µM	74 ± 7%	
CCCCCCCC=O [Octanal]	> 20 µM	61 ± 6%	
CC(=O)OCCc1ccccc1 [Phenylethyl acetate]	> 20 µM	64 ± 2%	
CCCC/C=C\CCCCCCOC(C)=O [Z7-12: Ac]	> 20 µM		Fluorescence (%) at Maximum Concentration [1, 6]: 74 ± 4%
CC/C=C\CCCCCCCCOC(C)=O [Z9-12: Ac]	> 20 µM		Fluorescence (%) at Maximum Concentration [1, 6]: 72 ± 2%
CCCC/C=C\CCCCCCCCOC(C)=O [Z9-14: Ac]	> 20 µM		Fluorescence (%) at Maximum Concentration [1, 6]: 78 ± 2%
CCCCCC/C=C\CCCCCCCC=O [Z9-16: Ald]	> 20 µM		Fluorescence (%) at Maximum Concentration [1, 6]: 82 ± 3%
CCCCCC/C=C\CCCCCCCCO [Z9-16: OH]	> 20 µM		Fluorescence (%) at Maximum Concentration [1, 6]: 76 ± 1%
CCCC/C=C\CCCCCCCCCCOC(C)=O [Z11-16: Ac]	> 20 µM		Fluorescence (%) at Maximum Concentration [1, 6]: 70 ± 2%
CCCC/C=C\CCCCCCCCCC=O [Z11-16: Ald]	> 20 µM		Fluorescence (%) at Maximum Concentration [1, 6]: 89 ± 1%
CCCC/C=C\CCCCCCCCCCO [Z11-16: OH]	> 20 µM		Fluorescence (%) at Maximum Concentration [1, 6]: 70 ± 5%
C=CC(=C)CCC=C(C)C [β-myrcene]	> 20 µM	94 ± 1%	
C=C1CCC2CC1C2(C)C (stereo not drawn) [β-pinene]	> 20 µM	100 ± 2%	
